Measurements published in patent US20080069913A1, “Anti-Snoring Composition” (PERSEE MEDICA,, priority 2004, published 2008).

Legend:
[1] = artificial saliva immersion test; format: physicochemical; conditions: membrane covered in mucin, submerged vertically in 2 litres of artificial saliva
Description: (§1) Three types of tests were performed: flow measurement on a biological membrane, the test of immersion in artificial saliva and the salting-out test. The rate of flow is the time it takes a given volume of liquid to travel 10 centimetres across a plane tilted at 45°. The saliva immersion test aims to highlight the contact time of the product with the biological membrane when it is subjected to the effect of saliva. Finally, the salting-out test aims to highlight the time it takes the product to salt out a tracer when it is subject to permanent “leaching” by the saliva. These three tests are described in full in the scientific literature and are reference tests for measuring the time a solution remains at its site of action in experimental conditions approximating the physiological conditions of the pharyngeal mucosa.
The aim of the artificial saliva immersion test is to show the contact time of the product with the biological membrane when subjected to the effect of saliva. As before, the product is deposited on the surface of a biological membrane covered in mucin. After flowing over a distance of 10 cm, the plate/biological membrane/product assembly is submerged vertically in a container with 2 litres of artificial saliva. The time the product remains on the surface of the membrane is determined using a chronometer.

[2] = flow time (rate of flow) over 10 cm on a plane tilted at 45°; format: physicochemical; conditions: 0.5 ml, plate tilted 45°
Description: as §1
The composition (bioadhesive preparation) was examined under experimental conditions to verify its bioadhesive properties and compare them to a non-bioadhesive reference substance (distilled water) and a liposome-based commercial preparation (liposome preparation). The measurements carried out included flow time on a biological membrane and immersion in artificial saliva.
The rate of flow is the time it takes for a given volume of liquid to travel 10 cm over a plane tilted at 45°. This test was performed on 3 levels: • on a 20 cm^2 stainless-steel plate, non-biological membrane; • on a 20 cm^2 stainless-steel plate covered with a cellulose membrane, biological membrane; • on a 20 cm^2 stainless-steel plate covered in a cellulose membrane impregnated with a 5% mucin solution.
For this study, 0.5 ml was deposited 0.5 cm from the top edge of the plate, the deposit being made in horizontal position. The chronometer starting line is located 5 cm from the top edge of the plate when the liquid crosses it after tilting the plate to 45°. In the same way, the chronometer stopping line is located 5 cm from the bottom edge of the plate when the liquid crosses it.

O [Distilled water]
<1″: time the product remains on the surface of the membrane [1] | flow time, Stainless-steel support ([2]; 20 cm^2 stainless-steel plate, non-biological) | flow time, Stainless-steel + membrane + mucin ([2]; cellulose membrane impregnated with 5% mucin solution) | flow time, Stainless-steel + membrane ([2]; stainless-steel plate covered with cellulose membrane)
